The values that follow come from patent US20240174649A1, “CULLIN-RING E3 UBIQUITIN LIGASE 4 INHIBITOR COMPOUNDS AND METHODS OF THEIR USE” (ICAHN SCHOOL OF MEDICINE AT MOUNT SINAI, priority 2021, published 2024).

The target of data set [1] is T1, ROC1-CUL1 (Homo sapiens (Human), UniProt Q13616). The experiment in a line: Cullin-32P-Ub elongation assay with ROC1-CUL1. In kind it is biochemical. The conditions noted are these: as much as 150 μM.
Data set [2] deals with E3 CRL4^CRBN (Homo sapiens (Human), UniProt Q13619). The experiment in a line: Lenalidomide-dependent ubiquitination of CK1α by CRL4^CRBN. Format: biochemical. As to the method: To prepare Flag-CK1α as a substrate for ubiquitination experiments described in FIGS. 2A-E, the expression vector (purchased from Addgene) was introduced to HEK-293T cells by transfection using Lipofectamine RNAIMAX (ThermoFisher) according to manufacturer's protocols. Cell extracts were prepared and the concentration of Flag-CK1α was determined using immunoblot analysis with purified GST-CK1α (Sigma) as a standard. Typically, 50-100 μl of extracts was used to attach to ˜15 μl of M2 beads (Sigma) at 4° C. for 2 hours. Unbound materials were removed by washing (first three times with a washing buffer containing 50 mM Tris-HCl, pH8.0, 1% Triton X-100, 0.5M NaCl, and then twice with buffer A plus 50 mM NaCl) and the resulting beads were used in the ubiquitination assay (15 μl). The concentration of Flag-CK1α was determined to be ˜100 nM.
Immobilized, Flag-CK1α-containing beads were initially incubated with a reaction mixture (10 μl) containing 50 mM Tris-HCl (pH7.4), 0.5 mM DTT, 0.1 mg/ml of BSA, 5 mM MgCl2, 100 nM CRL4^CRBN, 1 μM Lenalidomide (Selleckchem), 1 μM Fluorescein-Ub, 100 nM E1, and 1 μM UbcH5c. ATP (20 mM) was added last to initiate the reaction. The reaction was incubated on a thermomixer (1,300 rpm; Eppendorf) at 37° C. for 5 min. The resulting beads were then added with a second reaction mixture (5 μl) containing 50 mM Tris-HCl (pH7.4), 0.5 mM DTT, 0.1 mg/ml of BSA, 5 mM MgCl2, 4 μM I-Ub-Q31C/K48R, and 1 μM Cdc34b, in the presence or absence of E3 inhibitors as specified. The reaction was incubated on a thermomixer at 37° C. for times as indicated. The concentrations of enzymes, Ubs, and compounds stated above were adjusted based on a final volume of 15 μl. The beads were then washed using conditions as described above. Materials eluted from the beads were separated by 4-20% SDS-PAGE followed by detection with fluorescence scanning (Typhoon 9500) or immunoblot using anti-CK1α antibody (Abcam). […]

The target in data set [3] is T1, ROC1-CUL1. Nature of the data set: Gel-based di-Ub synthesis. In kind it is biochemical. The method, then:
For the experiment shown in FIG. 7 and FIGS. 8A-B, the di-Ub synthesis reaction was carried out by preassembling the donor Ub mix. The donor Ub mixture (5 μl) contained 50 mM Tris HCl (pH 7.4), 5 mM MgCl2, 2 mM ATP, 0.5 mM DTT, 0.1 mg/mL BSA, 1 μM Ub-NC-I555, 0.1 μM E1, and 2 μM Cdc34b. The reaction was incubated for 5 min at 37° C. Compounds, in the amounts indicated, were added followed by the addition of ROC1-CUL1 (or related E3 subcomplex) in amounts as indicated and 10 μM PK-Ub (1-74) (as a receptor). The final volume was adjusted to 10 μl. The reaction was incubated for 10 min at 37° C.
For the experiments shown in FIG. 8C and FIG. 9, the reaction was assembled in a 10-μl mixture containing 50 mM Tris HCl (pH 7.4), 5 mM MgCl2, 0.5 mM DTT, 0.1 mg/mL BSA, 0.05 μM Ub-NC-I555, 2,5 μM PK-Ub (1-74), 0.1 μM E1, 1 μM Cdc34b, and 80 nM ROC1-CUL1 with or without compound. The reaction was initiated by the addition of 2 mM ATP. The products were separated by 4-20% SDS/PAGE and were visualized and quantified on a Typhoon FLA 9500 laser scanner (GE).

Data set [4] deals with cancer cells. Nature of the data set: Apoptosis, Annexin V flow cytometry. In kind it is cell-based. In a few lines: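 5×10^4 cells were seeded 24 h before treatment, then cultured with compound for 48 h. Pelleted cells were washed in Annexin V binding buffer (HEPES pH 7.4, with CaCl2) and stained in the dark with Annexin V-FITC (2 μg/ml) for 5 min. Apoptosis was read by flow cytometry.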
In general terms: A flow cytometer gives signals particle by particle.

In data set [5] the test system is CACO-2. Nature of the data set: CACO-2 permeability. Format: in vitro ADME. The conditions noted are these: for PGP substrate: PGP-transporter (MDR1). As to the method:
(§1) ADME studies on compounds #33-11 and KH-4-43 for “absorption, distribution, metabolism, and excretion” were carried out at CRO, BioDuro. Kinetic solubility, plasma and microsome stability in rat, mouse and human, as well as Caco-2 Permeability were examined.

A short description of data set [6]: Kinetic solubility. Particulars: pH 7.4. Format: physicochemical. The method, then:
as §1

Data set [7] is described as follows: Mouse i.p. PK. Format: in vivo.
Data set [8] can be described thus: End-of-study PK in MV4-11 xenograft mice. In kind it is in vivo. Particulars: mouse. As to the method: Tumor tissues were weighed at the end of study. At the endpoint, 100 μl blood and tumors from Group 3 (G3) and Group 4 (G4) were collected as shown in the Table 3, for further pharmacokinetics or biomarker analysis. Plasma were isolated from all blood samples.

Data set [9] concerns MV4-11 tumors. Nature of the data set: AML MV4-11 subcutaneous xenograft. The conditions noted are these: for tumor inhibition value: IP.

Structures are written as SMILES.

T1 sequence (Q13616 whole entry): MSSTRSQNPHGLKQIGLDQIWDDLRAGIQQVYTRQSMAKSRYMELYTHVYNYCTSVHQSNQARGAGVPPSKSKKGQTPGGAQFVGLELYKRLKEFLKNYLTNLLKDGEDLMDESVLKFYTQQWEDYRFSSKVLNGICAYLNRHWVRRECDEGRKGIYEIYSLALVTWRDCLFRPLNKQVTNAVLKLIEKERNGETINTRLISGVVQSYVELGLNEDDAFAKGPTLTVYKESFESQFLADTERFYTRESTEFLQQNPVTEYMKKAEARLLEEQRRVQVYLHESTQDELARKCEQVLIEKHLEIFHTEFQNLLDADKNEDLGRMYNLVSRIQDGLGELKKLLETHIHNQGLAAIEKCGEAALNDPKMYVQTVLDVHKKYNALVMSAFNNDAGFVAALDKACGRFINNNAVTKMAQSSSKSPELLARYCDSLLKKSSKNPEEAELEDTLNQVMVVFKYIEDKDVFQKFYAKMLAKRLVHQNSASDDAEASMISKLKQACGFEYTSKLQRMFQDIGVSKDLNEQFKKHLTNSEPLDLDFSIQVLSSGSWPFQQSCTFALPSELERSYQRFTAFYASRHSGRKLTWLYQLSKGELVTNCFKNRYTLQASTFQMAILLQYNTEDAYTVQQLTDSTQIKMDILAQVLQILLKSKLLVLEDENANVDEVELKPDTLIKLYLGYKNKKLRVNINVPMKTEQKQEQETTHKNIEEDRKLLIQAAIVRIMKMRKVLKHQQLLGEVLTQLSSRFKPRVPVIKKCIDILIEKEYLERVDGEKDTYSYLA
T1 sequence (P62877 whole entry partner): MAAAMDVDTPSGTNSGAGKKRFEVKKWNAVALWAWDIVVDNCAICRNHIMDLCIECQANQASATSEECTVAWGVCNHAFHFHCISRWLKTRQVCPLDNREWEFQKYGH
Sequence of E3 CRL4^CRBN (Q13619 whole entry): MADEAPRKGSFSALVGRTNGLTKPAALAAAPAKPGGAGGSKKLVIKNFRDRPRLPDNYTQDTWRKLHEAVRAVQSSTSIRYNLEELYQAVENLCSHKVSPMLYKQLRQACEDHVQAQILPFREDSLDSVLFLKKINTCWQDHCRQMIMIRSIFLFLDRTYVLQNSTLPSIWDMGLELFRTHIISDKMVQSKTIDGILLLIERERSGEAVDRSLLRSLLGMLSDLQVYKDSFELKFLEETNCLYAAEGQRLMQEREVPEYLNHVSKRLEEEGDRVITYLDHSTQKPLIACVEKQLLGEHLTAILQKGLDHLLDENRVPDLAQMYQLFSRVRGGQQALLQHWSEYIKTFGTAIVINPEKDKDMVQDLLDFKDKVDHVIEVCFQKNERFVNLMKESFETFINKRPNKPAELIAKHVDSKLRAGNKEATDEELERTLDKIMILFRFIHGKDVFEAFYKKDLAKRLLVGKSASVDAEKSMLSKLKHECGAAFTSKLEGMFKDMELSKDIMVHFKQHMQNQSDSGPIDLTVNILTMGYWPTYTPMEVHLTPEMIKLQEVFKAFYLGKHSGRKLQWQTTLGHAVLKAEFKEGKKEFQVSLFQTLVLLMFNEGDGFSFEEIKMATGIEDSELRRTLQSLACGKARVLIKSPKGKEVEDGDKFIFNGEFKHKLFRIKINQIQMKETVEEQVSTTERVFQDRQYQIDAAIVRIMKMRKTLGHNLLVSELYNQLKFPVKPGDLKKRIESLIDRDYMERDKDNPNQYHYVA
Sequence of E3 CRL4^CRBN (P62877 whole entry partner): as the sequence (P62877 whole entry partner) above
Sequence of E3 CRL4^CRBN (Q16531 whole entry partner): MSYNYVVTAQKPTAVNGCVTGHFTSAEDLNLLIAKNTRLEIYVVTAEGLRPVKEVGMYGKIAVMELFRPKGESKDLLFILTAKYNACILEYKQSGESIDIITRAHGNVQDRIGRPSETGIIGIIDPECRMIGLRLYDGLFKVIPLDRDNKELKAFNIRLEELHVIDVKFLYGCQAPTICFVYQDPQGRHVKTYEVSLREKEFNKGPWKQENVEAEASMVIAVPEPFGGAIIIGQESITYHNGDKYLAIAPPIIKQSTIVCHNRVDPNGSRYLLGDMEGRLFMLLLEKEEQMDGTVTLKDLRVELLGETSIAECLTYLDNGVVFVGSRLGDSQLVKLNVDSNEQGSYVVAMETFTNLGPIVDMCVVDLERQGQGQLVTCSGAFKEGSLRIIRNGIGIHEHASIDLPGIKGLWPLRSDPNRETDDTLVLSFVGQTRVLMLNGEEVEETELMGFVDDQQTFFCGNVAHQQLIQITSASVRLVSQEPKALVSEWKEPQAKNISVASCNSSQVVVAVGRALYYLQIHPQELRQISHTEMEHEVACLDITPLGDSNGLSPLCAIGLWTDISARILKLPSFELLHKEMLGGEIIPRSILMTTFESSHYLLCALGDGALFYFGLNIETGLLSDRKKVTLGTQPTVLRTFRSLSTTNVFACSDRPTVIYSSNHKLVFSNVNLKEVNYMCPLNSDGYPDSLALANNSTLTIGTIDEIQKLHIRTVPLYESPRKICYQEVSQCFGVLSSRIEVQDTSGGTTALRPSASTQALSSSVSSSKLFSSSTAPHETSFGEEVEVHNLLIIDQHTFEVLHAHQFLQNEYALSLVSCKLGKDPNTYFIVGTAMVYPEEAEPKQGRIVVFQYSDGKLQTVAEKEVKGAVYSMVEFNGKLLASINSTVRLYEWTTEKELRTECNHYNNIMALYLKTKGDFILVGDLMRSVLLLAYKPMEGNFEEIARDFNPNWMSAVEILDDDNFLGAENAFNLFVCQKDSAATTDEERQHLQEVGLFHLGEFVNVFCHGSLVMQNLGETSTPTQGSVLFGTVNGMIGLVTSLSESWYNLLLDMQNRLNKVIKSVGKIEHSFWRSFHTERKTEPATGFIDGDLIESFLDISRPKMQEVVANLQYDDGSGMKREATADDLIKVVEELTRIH
Sequence of E3 CRL4^CRBN (Q96SW2 whole entry partner): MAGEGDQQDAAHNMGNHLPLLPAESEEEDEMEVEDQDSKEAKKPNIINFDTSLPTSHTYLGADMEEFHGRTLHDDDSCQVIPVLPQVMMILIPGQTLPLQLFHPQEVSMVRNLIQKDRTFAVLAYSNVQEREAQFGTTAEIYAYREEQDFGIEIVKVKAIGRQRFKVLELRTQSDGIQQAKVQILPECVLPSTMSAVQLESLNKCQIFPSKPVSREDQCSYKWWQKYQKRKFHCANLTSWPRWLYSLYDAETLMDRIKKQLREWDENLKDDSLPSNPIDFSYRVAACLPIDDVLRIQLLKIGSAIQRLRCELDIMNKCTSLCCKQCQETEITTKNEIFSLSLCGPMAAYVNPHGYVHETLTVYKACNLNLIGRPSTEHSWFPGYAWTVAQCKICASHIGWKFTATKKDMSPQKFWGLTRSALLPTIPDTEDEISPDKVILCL

With `O=c1c(-c2cnn(-c3ccccc3)c2)c(C(F)(F)F)oc2c(O)c(O)ccc12` [#33-11, 7,8-dihydroxy-3-(1-phenyl-1H-pyrazol-4-yl)-2-(trifluoromethyl)-4H-chromen-4-one], the “effect on levels of CUL1-32P-Ub” value in data set [1] is reported as “little effects”. Besides, the “inhibition of ubiquitination of CK1α” value in data set [2] (at 30 μM) was “Significant inhibitory effects”. Moreover, the “level of di-Ub product” value in data set [3] (up to 150 μM) was “remained almost unchanged”. Moreover, the response in data set [4] (Table 6) was half-maximal at 13 µM (EC50). In data set [5], the “A:B/B:A” value is recorded as 1.95, the Permeability entry is reported as “high” and the PGP substrate entry was “probable”. The “Kinetic solubility, rating” value in data set [6] is “moderate solubility”. Besides, in data set [7] (i.p. 100 mg/kg in DMSO), the Ctrough worked out at 160 nM and the T1/2 was 7.2 h. In data set [7] (i.p. 100 mg/kg in DMSO, 0-24 hr), this compound gave an AUC of 19.6 μM-hr. Also, the AUC in data set [8] (tumor, mice dosed with #33-11, read-out: AUC in tumors) worked out at 0.75 µM·h. Besides, in data set [9] (earlier AML MV4-11 xenograft model study), the tumor growth inhibition result is reported as “did not reach statistically significant levels”.
As for `O=c1c(-c2cnn(-c3ccc(Cl)cc3)c2)c(C(F)(F)F)oc2c(O)c(O)ccc12` [KH-4-43, 3-(1-(4-chlorophenyl)-1H-pyrazol-4-yl)-7,8-dihydroxy-2-(trifluoromethyl)-4H-chromen-4-one], the “dose range inhibiting ubiquitination by CRL4” value in [2] was roughly 10 µM. Moreover, the “discharge of Cdc34-Ub and production of Ub2 by ROC1-CUL1” value in [3] is listed as “no effect”. Besides, the EC50 – broadly, the concentration that produces a half-maximal response – in data set [4] (Table 1) is 4 µM; in data set [4] (Table 6), 8 µM. Besides, the Permeability entry in data set [5] was “highly permeable and high”. Besides, in [5], the PGP substrate result was “not a substrate”. Further, in [7] (i.p. 100 mg/kg), the “24 hr C-trough concentration” value was found to be 89 nM. In [7] (i.p. 100 mg/kg), the tolerability result was “well tolerated”. The same compound gave a Ctrough in data set [7] (i.p. 100 mg/kg in DMSO) of 90 nM. The AUC in data set [8] (BALB/c nude, plasma, ip, G3, 50 mg/kg Q2D, read-out: AUC over 24 hours in plasma) is roughly 3.3 µM·h; in [8] (BALB/c nude, tumor, ip, G4, 50 mg/kg QD, read-out: AUC over 24 hours in tumor), roughly 4.7 µM·h. In data set [8] (in vivo), the “tumor AUC higher than with #33-11” value stood at 6 fold. The tumor inhibition value was found to be 18.60% in data set [9] (G2, 25 mg/kg, Q2D); 25.15% in [9] (G3, 50 mg/kg, Q2D); 38.90% in data set [9] (G4, 50 mg/kg, QD). Further, the “safety by body weight loss guideline (>20% toxic)” value in data set [9] (tested dose levels 25 and 50 mg/kg) is “judged to be safe”.
